{"source": "patent US12435044B2", "about": "“Pyridazinone herbicides and pyridazinone intermediates used to prepare a herbicide” (FMC Corporation, priority 2018, dated 2025)", "assay_type_in_all_cases": "in vivo", "key": {"[1]": {"system": "barnyardgrass (Echinochloa crus-galli)", "assay": "Test A pre-/postemergence greenhouse test", "text": "(§1) Seeds of plant species selected from barnyardgrass (Echinochloa crus-galli), kochia (Kochia scoparia), ragweed (common ragweed, Ambrosia elatior), ryegrass, Italian (Lolium multiflorum), foxtail, giant (Setaria faberii), foxtail, green (Setaria viridis) and pigweed (Amaranthus retroflexus) were planted into a blend of loam soil and sand and treated preemergence with a directed soil spray using test chemicals formulated in a non-phytotoxic solvent mixture which included a surfactant.\n(§2) At the same time, plants selected from these weed species and also wheat (Triticum aestivum), corn (Zea mays), blackgrass (Alopecurus myosuroides) and galium (catchweed bedstraw, Galium aparine) were planted in pots containing the same blend of loam soil and sand and treated with postemergence applications of test chemicals formulated in the same manner. Plants ranged in height from 2 to 10 cm and were in the one- to two-leaf stage for the postemergence treatment. Treated plants and untreated controls were maintained in a greenhouse for approximately 10 d, after which time all treated plants were compared to untreated controls and visually evaluated for injury. Plant response ratings, summarized in Table A, are based on a 0 to 100 scale where 0 is no effect and 100 is complete control. A dash (-) response means no test result."}, "kochia (Kochia scoparia)": {"system": "kochia (Kochia scoparia)", "assay": "Test A pre-/postemergence greenhouse test", "text": "as §1, §2"}, "[2]": {"system": "pigweed (Amaranthus retroflexus)", "assay": "Test A pre-/postemergence greenhouse test", "text": "as §1, §2"}, "[3]": {"system": "ragweed (common ragweed, Ambrosia elatior)", "assay": "Test A pre-/postemergence greenhouse test", "text": "as §1, §2"}, "[4]": {"system": "ryegrass, Italian (Lolium multiflorum)", "assay": "Test A pre-/postemergence greenhouse test", "text": "as §1, §2"}, "[5]": {"system": "barnyardgrass (Echinochloa crus-galli)", "assay": "Test C flooded paddy test", "conditions": "Flood, scale 0 to 100", "text": "(§3) Plant species in the flooded paddy test consisted of rice (transplanted and water seeded, Oryza sativa), sedge, umbrella (small-flower umbrella sedge, Cyperus difformis), ducksalad (Heteranthera limosa), Bulrush, Japanese (Scirpus juncoides) and barnyardgrass (Echinochloa crus-galli) grown to the 2-leaf stage for testing. At time of treatment, test pots were flooded to 3 cm above the soil surface, treated by application of test compounds directly to the paddy water, and then maintained at that water depth for the duration of the test. Treated plants and controls were maintained in a greenhouse for 13 to 15 d, after which time all species were compared to controls and visually evaluated. Plant response ratings, summarized in Table C are based on a scale of 0 to 100 where 0 is no effect and 100 is complete control. A dash (-) response means no test result."}, "[6]": {"system": "ducksalad (Heteranthera limosa)", "assay": "Test C flooded paddy test", "conditions": "Flood, scale 0 to 100", "text": "as §3"}, "[7]": {"system": "rice (transplanted and water seeded, Oryza sativa)", "assay": "Test C flooded paddy test", "conditions": "Flood, scale 0 to 100", "text": "as §3"}, "[8]": {"system": "sedge, umbrella (small-flower umbrella sedge, Cyperus difformis)", "assay": "Test C flooded paddy test", "conditions": "Flood, scale 0 to 100", "text": "as §3"}, "[9]": {"system": "barley, winter (Hordeum vulgare)", "assay": "Test D pre-/postemergence controlled growth environment test", "text": "(§4) Seeds of plant species selected from blackgrass (Alopecurus myosuroides), galium (catchweed bedstraw, Galium aparine), kochia (Kochia scoparia), oilseed rape (Brassica napus), barley, spring (Hordeum vulgare), wheat, spring (Triticum aestivum), oat, wild (Avena fatua), barley, winter (Hordeum vulgare) and wheat, winter (Triticum aestivum) were planted into a silt loam soil and treated preemergence with test chemicals formulated in a non-phytotoxic solvent mixture which included a surfactant.\n(§5) At the same time, plants selected from these crop and weed species and also bluegrass (annual bluegrass, Poa annua), canarygrass (littleseed canarygrass, Phalaris minor), chickweed (common chickweed, Stellaria media), bromegrass, downy (downy bromegrass, Bromus tectorum), field poppy (Papaver rhoeas), field violet (Viola arvensis), foxtail, green (Setaria viridis), deadnettle (henbit deadnettle, Lamium amplexicaule), ryegrass, Italian (Lolium multiflorum), lambsquarters (Chenopodium album), pigweed (Amaranthus retroflexus), chamomile (scentless chamomile, Matricaria inodora), Russian thistle (Salsola kali), speedwell (bird's-eye speedwell, Veronica persica), buckwheat, wild (Polygonum convolvulus), mustard, wild (Sinapis arvensis), radish, wild (Raphanus raphanistrum), windgrass (Apera spica-venti), geranium, cutleaf (Geranium dissectum) and Canada thistle (Cirsium arvense) were planted in pots containing Redi-Earth® planting medium (Scotts Company, 14111 Scottslawn Road, Marysville, Ohio 43041) comprising spaghnum peat moss, vermiculite, wetting agent and starter nutrients and treated with postemergence applications of the test chemicals formulated in the same manner. Plants ranged in height from 2 to 18 cm (1- to 4-leaf stage). Treated plants and controls were maintained in a controlled growth environment for 14 to 21 d after which time all species were compared to controls and visually evaluated. Plant response ratings, summarized in Table D, are based on a scale of 0 to 100 where 0 is no effect and 100 is complete control. A dash (-) response means no test result."}, "[10]": {"system": "blackgrass (Alopecurus myosuroides)", "assay": "Test D pre-/postemergence controlled growth environment test", "text": "as §4, §5"}, "[11]": {"system": "oilseed rape (Brassica napus)", "assay": "Test D pre-/postemergence controlled growth environment test", "text": "as §4, §5"}, "[12]": {"system": "wheat, spring (Triticum aestivum)", "assay": "Test D pre-/postemergence controlled growth environment test", "text": "as §4, §5"}}, "data": [{"smiles": "Cc1cc(Cl)c2ccccc2c1-c1c(O)c(Cl)nn(C)c1=O", "note": "[Cpd. No. 65]", "values": [{"measurement": "Plant response rating (0 to 100 scale)", "setting": "[1]; Postemergence, 31 g ai/ha", "result": 100}, {"measurement": "Plant response rating (0 to 100 scale)", "setting": "[1]; Postemergence, 125 g ai/ha", "result": 100}, {"measurement": "Plant response rating (0 to 100 scale)", "setting": "[1]; Preemergence, 31 g ai/ha", "result": 100}, {"measurement": "Plant response rating (0 to 100 scale)", "setting": "[1]; Preemergence, 125 g ai/ha", "result": 100}, {"measurement": "Plant response rating (0 to 100 scale)", "setting": "kochia (Kochia scoparia); Postemergence, 31 g ai/ha", "result": 80}, {"measurement": "Plant response rating (0 to 100 scale)", "setting": "kochia (Kochia scoparia); Postemergence, 125 g ai/ha", "result": 100}, {"measurement": "Plant response rating (0 to 100 scale)", "setting": "kochia (Kochia scoparia); Preemergence, 31 g ai/ha", "result": 0}, {"measurement": "Plant response rating (0 to 100 scale)", "setting": "kochia (Kochia scoparia); Preemergence, 125 g ai/ha", "result": 80}, {"measurement": "Plant response rating (0 to 100 scale)", "setting": "[2]; Postemergence, 31 g ai/ha", "result": 100}, {"measurement": "Plant response rating (0 to 100 scale)", "setting": "[2]; Postemergence, 125 g ai/ha", "result": 100}, {"measurement": "Plant response rating (0 to 100 scale)", "setting": "[2]; Preemergence, 31 g ai/ha", "result": 100}, {"measurement": "Plant response rating (0 to 100 scale)", "setting": "[2]; Preemergence, 125 g ai/ha", "result": 100}, {"measurement": "Plant response rating (0 to 100 scale)", "setting": "[3]; Postemergence, 31 g ai/ha", "result": 100}, {"measurement": "Plant response rating (0 to 100 scale)", "setting": "[3]; Postemergence, 125 g ai/ha", "result": 100}, {"measurement": "Plant response rating (0 to 100 scale)", "setting": "[3]; Preemergence, 31 g ai/ha", "result": 100}, {"measurement": "Plant response rating (0 to 100 scale)", "setting": "[3]; Preemergence, 125 g ai/ha", "result": 100}, {"measurement": "Plant response rating (0 to 100 scale)", "setting": "[4]; Postemergence, 31 g ai/ha", "result": 100}, {"measurement": "Plant response rating (0 to 100 scale)", "setting": "[4]; Postemergence, 125 g ai/ha", "result": 100}, {"measurement": "Plant response rating (0 to 100 scale)", "setting": "[4]; Preemergence, 31 g ai/ha", "result": 100}, {"measurement": "Plant response rating (0 to 100 scale)", "setting": "[4]; Preemergence, 125 g ai/ha", "result": 100}, {"measurement": "Plant response rating, Barnyardgrass", "setting": "[5]; 31 g ai/ha", "result": 0}, {"measurement": "Plant response rating, Barnyardgrass", "setting": "[5]; 62 g ai/ha", "result": 10}, {"measurement": "Plant response rating, Barnyardgrass", "setting": "[5]; 125 g ai/ha", "result": 30}, {"measurement": "Plant response rating, Barnyardgrass", "setting": "[5]; 250 g ai/ha", "result": 100}, {"measurement": "Plant response rating, Ducksalad", "setting": "[6]; 31 g ai/ha", "result": 95}, {"measurement": "Plant response rating, Ducksalad", "setting": "[6]; 62 g ai/ha", "result": 100}, {"measurement": "Plant response rating, Ducksalad", "setting": "[6]; 125 g ai/ha", "result": 100}, {"measurement": "Plant response rating, Ducksalad", "setting": "[6]; 250 g ai/ha", "result": 100}, {"measurement": "Plant response rating, Rice, Transplanted", "setting": "[7]; 31 g ai/ha", "result": 0}, {"measurement": "Plant response rating, Rice, Transplanted", "setting": "[7]; 62 g ai/ha", "result": 0}, {"measurement": "Plant response rating, Rice, Transplanted", "setting": "[7]; 125 g ai/ha", "result": 20}, {"measurement": "Plant response rating, Rice, Water Seeded", "setting": "[7]; 125 g ai/ha", "result": 10}, {"measurement": "Plant response rating, Rice, Transplanted", "setting": "[7]; 250 g ai/ha", "result": 70}, {"measurement": "Plant response rating, Sedge, Umbrella", "setting": "[8]; 31 g ai/ha", "result": 95}, {"measurement": "Plant response rating, Sedge, Umbrella", "setting": "[8]; 62 g ai/ha", "result": 100}, {"measurement": "Plant response rating, Sedge, Umbrella", "setting": "[8]; 125 g ai/ha", "result": 100}, {"measurement": "Plant response rating, Sedge, Umbrella", "setting": "[8]; 250 g ai/ha", "result": 100}, {"measurement": "Plant response rating, Barley, Winter", "setting": "[9]; Postemergence, 16 g ai/ha", "result": 60}, {"measurement": "Plant response rating, Barley, Winter", "setting": "[9]; Postemergence, 31 g ai/ha", "result": 72}, {"measurement": "Plant response rating, Barley, Winter", "setting": "[9]; Postemergence, 62 g ai/ha", "result": 83}, {"measurement": "Plant response rating, Barley, Winter", "setting": "[9]; Postemergence, 125 g ai/ha", "result": 90}, {"measurement": "Plant response rating, Barley, Winter", "setting": "[9]; Preemergence, 16 g ai/ha", "result": 0}, {"measurement": "Plant response rating, Barley, Winter", "setting": "[9]; Preemergence, 31 g ai/ha", "result": 3}, {"measurement": "Plant response rating, Barley, Winter", "setting": "[9]; Preemergence, 62 g ai/ha", "result": 7}, {"measurement": "Plant response rating, Barley, Winter", "setting": "[9]; Preemergence, 125 g ai/ha", "result": 23}, {"measurement": "Plant response rating, Blackgrass", "setting": "[10]; Postemergence, 16 g ai/ha", "result": 83}, {"measurement": "Plant response rating, Blackgrass", "setting": "[10]; Postemergence, 31 g ai/ha", "result": 90}, {"measurement": "Plant response rating, Blackgrass", "setting": "[10]; Postemergence, 62 g ai/ha", "result": 93}, {"measurement": "Plant response rating, Blackgrass", "setting": "[10]; Postemergence, 125 g ai/ha", "result": 95}, {"measurement": "Plant response rating, Blackgrass", "setting": "[10]; Preemergence, 16 g ai/ha", "result": 13}, {"measurement": "Plant response rating, Blackgrass", "setting": "[10]; Preemergence, 31 g ai/ha", "result": 23}, {"measurement": "Plant response rating, Blackgrass", "setting": "[10]; Preemergence, 62 g ai/ha", "result": 63}, {"measurement": "Plant response rating, Blackgrass", "setting": "[10]; Preemergence, 125 g ai/ha", "result": 90}, {"measurement": "Plant response rating, Oilseed Rape", "setting": "[11]; Postemergence, 16 g ai/ha", "result": 85}, {"measurement": "Plant response rating, Oilseed Rape", "setting": "[11]; Postemergence, 31 g ai/ha", "result": 87}, {"measurement": "Plant response rating, Oilseed Rape", "setting": "[11]; Postemergence, 62 g ai/ha", "result": 90}, {"measurement": "Plant response rating, Oilseed Rape", "setting": "[11]; Postemergence, 125 g ai/ha", "result": 100}, {"measurement": "Plant response rating, Oilseed Rape", "setting": "[11]; Preemergence, 16 g ai/ha", "result": 0}, {"measurement": "Plant response rating, Oilseed Rape", "setting": "[11]; Preemergence, 31 g ai/ha", "result": 18}, {"measurement": "Plant response rating, Oilseed Rape", "setting": "[11]; Preemergence, 62 g ai/ha", "result": 85}, {"measurement": "Plant response rating, Oilseed Rape", "setting": "[11]; Preemergence, 125 g ai/ha", "result": 100}, {"measurement": "Plant response rating, Wheat, Spring", "setting": "[12]; Postemergence, 16 g ai/ha", "result": 90}, {"measurement": "Plant response rating, Wheat, Spring", "setting": "[12]; Postemergence, 31 g ai/ha", "result": 93}, {"measurement": "Plant response rating, Wheat, Spring", "setting": "[12]; Postemergence, 62 g ai/ha", "result": 93}, {"measurement": "Plant response rating, Wheat, Spring", "setting": "[12]; Postemergence, 125 g ai/ha", "result": 93}, {"measurement": "Plant response rating, Wheat, Spring", "setting": "[12]; Preemergence, 16 g ai/ha", "result": 63}, {"measurement": "Plant response rating, Wheat, Spring", "setting": "[12]; Preemergence, 31 g ai/ha", "result": 78}, {"measurement": "Plant response rating, Wheat, Spring", "setting": "[12]; Preemergence, 62 g ai/ha", "result": 90}, {"measurement": "Plant response rating, Wheat, Spring", "setting": "[12]; Preemergence, 125 g ai/ha", "result": 100}]}]}
